Publication PMC6266789 (Viruses, 2018)
Several values for one entry are separate records, joined by “and”; a condition that tells them apart may be missing. Identical values can stand only once. Like-named read-outs stand apart in the source and are kept apart here.

Experiments:
rec A(H1N1)pdm09 [1] = settings: mouse, in vivo
rec A(H1N1)pdm09 [2] = tested on: rec A(H1N1)pdm09; parameters: species or system C57BL/6 mice; settings: mouse, in vivo
[3] = tested on: pH1N1 influenza virus recovered from lungs of IS mice; assay: microbe, parasite or virus in culture; format: cell-based
rec A(H1N1)pdm09 [4] = tested on: rec A(H1N1)pdm09; parameters: species or system C57BL/6 mice; settings: mouse, in vivo; remark: listed apart in the source
influenza = tested on: influenza; parameters: method as in earlier work; settings: infected IC young adults; cited from earlier work
[5] = tested on: NA of pH1N1 influenza virus recovered from lungs of IS mice; format: biochemical, influenza A(H1N1)pdm09; settings: read-out: NAI Assay (Oseltamivir) Mean IC50
rec A(H1N1)pdm09 [6] = tested on: rec A(H1N1)pdm09; parameters: species or system C57BL/6 mice; settings: mouse, in vivo; remark: listed apart in the source

| SMILES | development of antibodies (microneutralization) (rec A(H1N1)pdm09 [1]) | MDD (mean days of death) (rec A(H1N1)pdm09 [2]) | body weight losses over a 21-day period (rec A(H1N1)pdm09 [2]) | decrease of mortality compared to the non-treated group (rec A(H1N1)pdm09 [2]) | survival rate (rec A(H1N1)pdm09 [2]) | MDD (mean days of death) (rec A(H1N1)pdm09 [2]; 20 mg/kg) | IC50 ([3]; read-out: PRA Assay (Favipiravir) IC50; virus from IS mice treated with oseltamivir 20 mg/kg + favipiravir 20 mg/kg BID, day 15; individual mice; Table 1) | IC50 ([3]; unidentified influenza virus, in Mus musculus, 288 h, virus from not treated IS mice, day 12; individual mice; Table 1 (exp 2); read-out: PRA Assay (Favipiravir) IC50) | IC50 ([3]; unidentified influenza virus, in Mus musculus, 360 h, virus from not treated IS mice, day 15; individual mice; Table 2 (exp 3); read-out: PRA Assay (Favipiravir) IC50) | IC50 ([3]; virus from IS mice treated with favipiravir 20 mg/kg BID, day 15; individual mice; Table 1; read-out: PRA Assay (Favipiravir) IC50) | IC50 ([3]; virus from IS mice treated with favipiravir 50 mg/kg BID, day 15; individual mice; Table 2; read-out: PRA Assay (Favipiravir) IC50) | IC50 ([3]; virus from IS mice treated with oseltamivir 20 mg/kg + favipiravir 20 mg/kg BID, day 15; individual mice; Table 1; read-out: PRA Assay (Favipiravir) IC50) | IC50 ([3]; virus from IS mice treated with oseltamivir 20 mg/kg + favipiravir 50 mg/kg BID, day 15; individual mice; Table 2; read-out: PRA Assay (Favipiravir) IC50) | IC50 ([3]; virus from not treated IS mice, day 12; individual mice; Table 1 (exp 2); read-out: PRA Assay (Favipiravir) IC50) | IC50 ([3]; virus from not treated IS mice, day 15; individual mice; Table 2 (exp 3); read-out: PRA Assay (Favipiravir) IC50) | favipiravir susceptibility phenotype by PRA ([3]; viruses recovered on day 15 p.i., exp 3) | LVTs vs non-treated and oseltamivir-treated mice (rec A(H1N1)pdm09 [4]) | nasal wash levels of IL-6, TNF-α and IFN-γ (influenza) | IC50 [5] | levels of IL-6, TNF-α and IFN-γ after treatment (rec A(H1N1)pdm09 [6]) |
| --- | --- | --- | --- | --- | --- | --- | --- | --- | --- | --- | --- | --- | --- | --- | --- | --- | --- | --- | --- | --- |
| O=P1(N(CCCl)CCCl)NCCCO1 (stereo not drawn) [CP, cyclophosphamide] | none of them developed antibodies |  |  |  |  |  |  |  |  |  |  |  |  |  |  |  |  |  |  |  |
| NC(=O)c1nc(F)cnc1O [Favipiravir, 6-fluoro-3-hydroxy-2-pyrazinecarboxamide] |  | 18 | reduced | 50% | 50% | 13 and 16.6 | 14 µM | 13.8 µM | 11.5 µM | 10.6 µM and 13 µM | 12.4 µM | 13 µM | 11.6 µM and 10.4 µM and 9.5 µM | 10.5 µM and 9.5 µM and 9.9 µM | 8.5 µM | did not show a resistant phenotype | statistically lower |  |  |  |
| CCOC(=O)C1=C[C@@H](OC(CC)CC)[C@H](NC(C)=O)[C@@H](N)C1 [Oseltamivir, oseltamivir] |  | 14.7 | reduced |  | 50% | 13 and 16.6 |  |  |  |  |  |  |  |  |  |  |  | reduced | 0.0006 µM and 0.0008 µM | not reduced |
